From PubChem BioAssay (NCI)
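Grown in 96-well plates, cells were treated for 48 hours with each compound at five concentrations. Insufficient inhibition: endpoint recorded as highest concentration tested. GI50: concentration for 50% inhibition of growth. The concentration for full growth arrest is given as TGI.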

How the values were obtained:
Test in all cases: NCI anticancer screen, dose series, 48 h
SK-MEL-2 melanoma = test system: SK-MEL-2 melanoma
HOP-62 NSCLC = test system: HOP-62 NSCLC
NCI-H522 lung = test system: NCI-H522 lung
CCRF-CEM leukemia = test system: CCRF-CEM leukemia
SW-620 colon = test system: SW-620 colon
MALME-3M melanoma = test system: MALME-3M melanoma
HT29 colon = test system: HT29 colon
RXF 393 renal = test system: RXF 393 renal
HCT-15 colon = test system: HCT-15 colon
KM12 colon = test system: KM12 colon

Cc1cc(N/N=C/c2nc(-c3ccc(Cl)cc3)oc2C)c2cc(Cl)ccc2n1
GI50 (SK-MEL-2 melanoma): 16.4 µM | TGI (SK-MEL-2 melanoma): 31.8 µM | GI50 (HOP-62 NSCLC): 1.92 µM | TGI (HOP-62 NSCLC): 3.76 µM | GI50 (NCI-H522 lung): 1.89 µM | TGI (NCI-H522 lung): 4.27 µM | GI50 (CCRF-CEM leukemia): 1.59 µM | TGI (CCRF-CEM leukemia): 7.18 µM | GI50 (SW-620 colon): 1.56 µM | TGI (SW-620 colon): 3.51 µM | GI50 (MALME-3M melanoma): 1.78 µM | TGI (MALME-3M melanoma): 3.36 µM | GI50 (HT29 colon): 1.97 µM | TGI (HT29 colon): 4.95 µM | GI50 (RXF 393 renal): 3.57 µM | TGI (RXF 393 renal): 15.8 µM | GI50 (HCT-15 colon): 1.68 µM | TGI (HCT-15 colon): 3.66 µM | GI50 (KM12 colon): 1.97 µM | TGI (KM12 colon): 4.6 µM

O=C1CCCN1CC#CCN1CCCC1
GI50 (SK-MEL-2 melanoma): > 100 µM | TGI (SK-MEL-2 melanoma): > 100 µM | GI50 (HOP-62 NSCLC): > 100 µM | TGI (HOP-62 NSCLC): > 100 µM | GI50 (NCI-H522 lung): > 100 µM | TGI (NCI-H522 lung): > 100 µM | GI50 (CCRF-CEM leukemia): > 100 µM | TGI (CCRF-CEM leukemia): > 100 µM | GI50 (SW-620 colon): > 100 µM | TGI (SW-620 colon): > 100 µM | GI50 (MALME-3M melanoma): > 100 µM | TGI (MALME-3M melanoma): > 100 µM | GI50 (HT29 colon): > 100 µM | TGI (HT29 colon): > 100 µM | GI50 (RXF 393 renal): > 100 µM | TGI (RXF 393 renal): > 100 µM | GI50 (HCT-15 colon): > 100 µM | TGI (HCT-15 colon): > 100 µM | GI50 (KM12 colon): > 100 µM | TGI (KM12 colon): > 100 µM

Cn1c(=O)c2c(ncn2CN2CCN(Cn3cnc4c3c(=O)n(C)c(=O)n4C)CC2)n(C)c1=O
TGI (SK-MEL-2 melanoma): > 100 µM | TGI (HOP-62 NSCLC): > 100 µM | TGI (NCI-H522 lung): > 100 µM | TGI (CCRF-CEM leukemia): 39.5 µM | TGI (SW-620 colon): > 100 µM | TGI (MALME-3M melanoma): > 100 µM | TGI (HT29 colon): > 100 µM | TGI (RXF 393 renal): 44.1 µM | TGI (HCT-15 colon): > 100 µM | TGI (KM12 colon): > 100 µM

CCOc1ccccc1NC(=O)CCc1nc(=S)[nH][nH]1
TGI (SK-MEL-2 melanoma): > 100 µM | TGI (HOP-62 NSCLC): > 100 µM | TGI (NCI-H522 lung): > 100 µM | TGI (CCRF-CEM leukemia): > 100 µM | TGI (SW-620 colon): > 100 µM | TGI (MALME-3M melanoma): > 100 µM | TGI (HT29 colon): > 100 µM | TGI (RXF 393 renal): > 100 µM | TGI (HCT-15 colon): > 100 µM | TGI (KM12 colon): > 100 µM

O=C(O)CSc1ncccc1[N+](=O)[O-]
TGI (SK-MEL-2 melanoma): > 100 µM | TGI (HOP-62 NSCLC): > 100 µM | TGI (NCI-H522 lung): > 100 µM | TGI (CCRF-CEM leukemia): > 100 µM | TGI (SW-620 colon): > 100 µM | TGI (MALME-3M melanoma): > 100 µM | TGI (HT29 colon): > 100 µM | TGI (RXF 393 renal): > 100 µM | TGI (HCT-15 colon): > 100 µM | TGI (KM12 colon): > 100 µM

Fc1cccc(Cl)c1/C=N\N=C1c2ccccc2-c2ccccc21
TGI (SK-MEL-2 melanoma): > 100 µM | TGI (HOP-62 NSCLC): > 100 µM | TGI (NCI-H522 lung): > 100 µM | TGI (CCRF-CEM leukemia): > 100 µM | TGI (SW-620 colon): > 100 µM | TGI (MALME-3M melanoma): > 100 µM | TGI (HT29 colon): > 100 µM | TGI (RXF 393 renal): > 100 µM | TGI (HCT-15 colon): > 100 µM | TGI (KM12 colon): > 100 µM

O=C1c2ccccc2-n2c1nc1ccccc1c2=O
TGI (SK-MEL-2 melanoma): 22.9 µM | TGI (HOP-62 NSCLC): 41 µM | TGI (NCI-H522 lung): 64.3 µM | TGI (CCRF-CEM leukemia): > 100 µM | TGI (SW-620 colon): 70.1 µM | TGI (MALME-3M melanoma): 29 µM | TGI (HT29 colon): 51.2 µM | TGI (RXF 393 renal): > 81.6 µM | TGI (HCT-15 colon): > 81.3 µM | TGI (KM12 colon): > 67.1 µM

C=C1C(=O)OC2/C=C(\C=O)CC/C=C(\C)C(O)C[C@@H]12 (some centres undefined)
TGI (SK-MEL-2 melanoma): 25 µM | TGI (HOP-62 NSCLC): 61.3 µM | TGI (NCI-H522 lung): 3.41 µM | TGI (CCRF-CEM leukemia): > 26.5 µM | TGI (SW-620 colon): 10.9 µM | TGI (MALME-3M melanoma): 22.2 µM | TGI (HT29 colon): 11.6 µM | TGI (RXF 393 renal): 7.46 µM | TGI (HCT-15 colon): 14.9 µM | TGI (KM12 colon): 18.5 µM

Cc1nc(C(N)=S)sc1C(=O)C/C(=N/N)C(=O)Nc1cccc(Cl)c1C
TGI (SK-MEL-2 melanoma): > 100 µM | TGI (HOP-62 NSCLC): > 100 µM | TGI (NCI-H522 lung): > 100 µM | TGI (CCRF-CEM leukemia): > 100 µM | TGI (SW-620 colon): > 100 µM | TGI (MALME-3M melanoma): > 100 µM | TGI (HT29 colon): > 100 µM | TGI (RXF 393 renal): > 100 µM | TGI (HCT-15 colon): > 100 µM | TGI (KM12 colon): > 100 µM

CC1CCN(CC(=O)N2c3ccccc3Sc3cc4ccccc4cc32)CC1
TGI (SK-MEL-2 melanoma): > 100 µM | TGI (HOP-62 NSCLC): > 100 µM | TGI (NCI-H522 lung): > 100 µM | TGI (CCRF-CEM leukemia): > 100 µM | TGI (SW-620 colon): > 100 µM | TGI (MALME-3M melanoma): > 100 µM | TGI (HT29 colon): > 100 µM | TGI (RXF 393 renal): > 100 µM | TGI (HCT-15 colon): > 100 µM | TGI (KM12 colon): > 100 µM

O=c1[nH]c(=O)n(C2OC3COC2C3O)cc1F (centres undefined)
TGI (SK-MEL-2 melanoma): > 100 µM | TGI (HOP-62 NSCLC): > 100 µM | TGI (NCI-H522 lung): > 100 µM | TGI (CCRF-CEM leukemia): > 100 µM | TGI (SW-620 colon): > 100 µM | TGI (MALME-3M melanoma): > 100 µM | TGI (HT29 colon): > 100 µM | TGI (RXF 393 renal): > 100 µM | TGI (HCT-15 colon): > 100 µM | TGI (KM12 colon): > 100 µM

COc1cc(S(C)(=O)=O)ccc1Nc1nc2ccc(-c3ccc(NC(=O)[C@H](C)c4ccc(F)cc4)cc3)cn2n1
GI50 (SK-MEL-2 melanoma): > 100 µM | TGI (SK-MEL-2 melanoma): > 100 µM | GI50 (HOP-62 NSCLC): > 100 µM | TGI (HOP-62 NSCLC): > 100 µM | GI50 (NCI-H522 lung): > 100 µM | TGI (NCI-H522 lung): > 100 µM | GI50 (CCRF-CEM leukemia): 0.62 µM | TGI (CCRF-CEM leukemia): > 100 µM | GI50 (SW-620 colon): 17.1 µM | TGI (SW-620 colon): > 100 µM | GI50 (MALME-3M melanoma): > 100 µM | TGI (MALME-3M melanoma): > 100 µM | TGI (HT29 colon): > 100 µM | GI50 (RXF 393 renal): > 48.5 µM | TGI (RXF 393 renal): > 100 µM | GI50 (HCT-15 colon): 0.075 µM | TGI (HCT-15 colon): > 100 µM | GI50 (KM12 colon): > 72.4 µM | TGI (KM12 colon): > 100 µM

CCN1CSC(=S)N(CC)C1
TGI (SK-MEL-2 melanoma): > 100 µM | TGI (HOP-62 NSCLC): 71.1 µM | TGI (NCI-H522 lung): > 100 µM | TGI (CCRF-CEM leukemia): > 100 µM | TGI (SW-620 colon): > 100 µM | TGI (MALME-3M melanoma): > 100 µM | TGI (HT29 colon): > 100 µM | TGI (RXF 393 renal): > 100 µM | TGI (HCT-15 colon): > 100 µM | TGI (KM12 colon): > 100 µM
